Laboratory results reported in PubChem BioAssay (NCI).
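Compound exposure: 48 hours, 5 concentrations, 96-well plates. Abbreviation: GI50, concentration required for 50% inhibition of growth. TGI is the concentration that stops growth completely.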

Assays:
Assay in all cases: inhibition of tumour cell growth, NCI panel, 48 h
[1] = tested on: COLO 205 colon
[2] = tested on: EKVX NSCLC
[3] = tested on: HCT-116 colon
[4] = tested on: HCT-15 colon
[5] = tested on: MDA-MB-231 breast
[6] = tested on: NCI/ADR-RES ovarian
[7] = tested on: SNB-19 CNS
[8] = tested on: SW-620 colon
[9] = tested on: TK-10 renal
[10] = tested on: T-47D breast

| SMILES | GI50 [1] [µM] | TGI [1] [µM] | GI50 [2] | TGI [2] | GI50 [3] [µM] | TGI [3] [µM] | GI50 [4] [µM] | TGI [4] [µM] | GI50 [5] | TGI [5] | GI50 [6] [µM] | TGI [6] [µM] | GI50 [7] | TGI [7] | GI50 [8] | TGI [8] | GI50 [9] [µM] | TGI [9] [µM] | GI50 [10] | TGI [10] |
| --- | --- | --- | --- | --- | --- | --- | --- | --- | --- | --- | --- | --- | --- | --- | --- | --- | --- | --- | --- | --- |
| Nc1cc(N)c2nc(-c3ccccc3)c(Nc3ccc(F)cc3)nc2c1 | 20.3 | 55.9 | 12 µM | 30 µM | 20.1 | > 100 | 12.7 | 38.1 | 11 µM | 30.5 µM | 23.8 | 57.5 | 22.1 µM | 40 µM | 13.6 µM | 39.2 µM | 17.3 | 35.6 | – | – |
| COc1ccc2[nH]c3c(cnn4cnnc34)c2c1 | – | > 100 | – | > 100 µM | – | – | – | > 100 | – | – | – | – | – | > 100 µM | – | > 100 µM | – | > 100 | – | – |
| CSC(=S)N(C)c1nc(=[N+](C)C)ss1 | – | – | – | > 100 µM | – | > 100 | – | > 100 | – | – | – | – | – | > 100 µM | – | > 100 µM | – | > 100 | – | – |
| CCCCCCn1c(-c2ccc(C(=O)O/N=C(\N)c3ccc(OC)cc3)cc2)nc(-c2ccccc2)c1-c1ccccc1 | – | – | 1.7 µM | 3.38 µM | 1.4 | 2.89 | 1.25 | 2.87 | 1.61 µM | 3.69 µM | 1.18 | 3.41 | 1.85 µM | 4.64 µM | – | – | 1.72 | 3.31 | 1.94 µM | 4.89 µM |
| C/C(=N\NC(N)=S)c1ccc(/C(C)=N/NC(N)=S)cc1 | – | > 100 | – | > 100 µM | – | > 100 | – | > 100 | – | – | – | – | – | > 100 µM | – | > 100 µM | – | > 100 | – | – |
| CCc1ccccc1NC(=O)CCc1nc(=S)[nH][nH]1 | – | > 100 | – | – | – | > 100 | – | > 100 | – | – | – | – | – | > 100 µM | – | > 100 µM | – | > 100 | – | – |
| COc1ccc(C2(CN(C)C)COc3cc(OC)c(OC)cc3C2=O)cc1OC (configuration not stated) | – | 76.2 | – | > 100 µM | – | 30.3 | – | – | – | – | – | – | – | > 100 µM | – | 45.8 µM | – | > 100 | – | – |
| CN1C(c2ccccc2)CC(=Nc2ccccc2)CC1c1ccccc1 (configuration not stated) | – | 22.8 | – | 56.5 µM | – | 16.4 | – | 29.9 | – | – | – | – | – | 27.8 µM | – | 22.9 µM | – | 36.9 | – | – |
| CC1(C)CCSC(/C=C/c2ccccc2)=N1 | – | – | – | 63.7 µM | – | 26.7 | – | 21.7 | – | 30.6 µM | – | 38.2 | – | 46 µM | – | 38.6 µM | – | 32.6 | – | – |
| [N-]=[N+]=Nc1ncc(-c2ccc(C(F)(F)F)cc2)c(NC2CCCCCC2)n1 | > 10 | > 10 | – | – | > 10 | > 10 | > 10 | > 10 | > 10 µM | > 10 µM | > 10 | > 10 | > 10 µM | > 10 µM | > 10 µM | > 10 µM | > 10 | > 10 | > 10 µM | > 10 µM |
| COc1n[n+]([O-])c(C)cc1[N+](=O)[O-] | – | – | 18.1 µM | 34.3 µM | 10.2 | 23.9 | 2.74 | 13.9 | 19.5 µM | 42.2 µM | 19.1 | 43.7 | – | – | 15.7 µM | 39.6 µM | 2.42 | 10.2 | – | – |
| O=[N+]([O-])c1ccc(Cc2nc3ccccc3s2)cc1 | – | > 100 | – | > 100 µM | – | > 100 | – | > 100 | – | – | – | – | – | > 100 µM | – | > 100 µM | – | > 100 | – | – |
| Cc1sc2ncnc(Sc3nc4ccccc4[nH]3)c2c1C | 33.5 | > 100 | – | – | 24 | > 100 | 28.2 | > 100 | 17.4 µM | 94.3 µM | 29.5 | > 100 | 47 µM | > 100 µM | 42.3 µM | > 100 µM | 28.5 | 62.4 | 18.1 µM | 62.9 µM |
| O=c1c2cc(Br)ccc2oc2ccc(Br)cc12 | – | > 100 | – | – | – | > 100 | – | > 100 | – | > 100 µM | – | > 100 | – | > 100 µM | – | > 100 µM | – | > 100 | – | > 100 µM |
| O=C(CC(=O)Nc1ccc(Cl)cc1)NNCC(=O)Nc1nc(-c2ccccc2)cs1 | – | > 100 | – | > 100 µM | – | > 100 | – | – | – | – | – | – | – | > 100 µM | – | > 100 µM | – | > 100 | – | – |
| CCCCCCCCCCCCCCCCC(C(=O)O)C(O)(CC(=O)O)C(=O)O (configuration not stated) | – | 35 | – | 39.3 µM | – | 36.3 | – | > 100 | – | 75.8 µM | – | > 100 | – | 79.3 µM | – | 46.6 µM | – | > 100 | – | – |
| CC1CCC2(OC1)OC1CC3C4CC=C5CC(OC6OC(CO)C(OC7OC(C)C(OC8OC(C)C(O)C(O)C8O)C(O)C7O)C(O)C6OC6OC(C)C(O)C(O)C6O)CCC5(C)C4CCC3(C)C1C2C (configuration not stated) | – | 3.06 | – | 2.1 µM | – | 1.92 | – | 2.92 | – | 1.33 µM | – | – | – | 2.4 µM | – | 2.89 µM | – | 2.68 | – | 2.89 µM |
| C/C(=N\NC(N)=S)c1ccc2c(c1)OCO2 | – | > 100 | – | > 100 µM | – | > 100 | – | > 100 | – | – | – | – | – | > 100 µM | – | > 100 µM | – | > 100 | – | – |
| N=C(c1ccccc1)N1CCCCC1 | – | > 100 | – | > 100 µM | – | > 100 | – | – | – | – | – | – | – | > 100 µM | – | > 100 µM | – | > 100 | – | – |
| COC(=O)c1nc(-c2ccc(Cl)c(Cl)c2)nc2ccccc12 | – | – | – | > 100 µM | – | > 100 | – | > 100 | – | – | – | – | – | 79.5 µM | – | > 100 µM | – | > 83.5 | – | – |
| C/C(=N\NC(=S)N(C)C)c1ncc[nH]1 | – | – | – | > 100 µM | – | > 100 | – | > 100 | – | – | – | – | – | > 100 µM | – | > 100 µM | – | > 100 | – | – |
| OCCN(CO)CN(CN(CO)CCO)c1nc(N(CN(CO)CCO)CN(CO)CCO)nc(N(CN(CO)CCO)CN(CO)CCO)n1 | – | – | 1.42 ng/mL | 5.03 ng/mL | – | – | – | – | 1.01 ng/mL | 3.23 ng/mL | – | – | 2.32 ng/mL | 744 ng/mL | 0.55 ng/mL | 6.27 ng/mL | – | – | 1.09 ng/mL | 3.21 ng/mL |
| O=C1CCC(c2nc3ccccc3o2)C(=O)N1 (configuration not stated) | – | > 100 | – | > 100 µM | – | > 100 | – | > 100 | – | – | – | – | – | > 100 µM | – | > 100 µM | – | > 100 | – | – |
